Data set [1] can be described thus: Relative quantification of urinary aPM (UPLC-QTOF-MS, creatinine-normalized) after controlled α-pinene inhalation. Format: in vivo, human. As to conditions: for Frequency of occurrence (percentage of samples with analyte detected) / Maximum response (highest peak response across all urine samples) / Observed Tmax / Tmax: human urine after α-pinene inhalation; for Proportion (observed) after α-pinene inhalation: share of total response of 22 aPM, averaged over post-exposure samples; for Tmax: inhaled or intranasal, read-out: Observed Tmax. The procedure:
(§1) Briefly, for controlled inhalation experiments, eight healthy volunteers were exposed to α-pinene in a custom-built exposure chamber via inhalation from a 15 ml conical tube, containing approximately 100 μl α-pinene, for a duration of 10 min. Urine samples were collected before exposure (0 h) and 0.5, 1, 2, 3, and 4 h after exposure. […] Urine samples were collected both before (0 h) or 4 h after exposure. After collection, the urine samples were centrifuged and stored at −80 °C before analysis. […] Demographic information, including sex, age and race, can be found in Table S1.
(§2) Briefly, after 1:10 dilution, urine samples were separated using an Acquity I-Class UPLC system with an Acquity Premier CSH C18 UPLC column (Waters, MA) with a gradient comprising 0.1 % formic acid in water as the solvent A and 0.1 % formic acid in acetonitrile as the solvent B. Mass Spectrometry Elevated Energy (MS^E) data were collected using a Waters Synapt XS MS (Waters, MA) with an ESI ion source operated in the negative mode. Subsequent analyses of raw files were performed using UNIFI 1.9 and Progenesis QI 3.0 (both from Waters, MA). To validate LC-MS performance, one quality control (QC) sample, prepared by pooling equal amount of each urine sample, was injected after every ten urine sample injections.
(§3) Relative quantification of aPM was performed based on the peak responses normalized to urinary creatinine levels. Urinary creatinine levels were measured using an Ace Axcel Clinical Chemistry System with ACE Creatinine Reagent from Alfa Wassermann (West Caldwell, NJ). Statistical analyses, including ANOVA and Student’s t-tests, were conducted using SAS 9.4 (SAS Institute, NC) to explore differences in aPM across various time points. […] A threshold for statistical significance was defined as p < 0.05.

Data set [2] is described as follows: Urinary aPM after 4 h greenness (forest) exposure. To be noted: for Frequency of occurrence / Maximum response: human urine, greenness exposure; for Proportion (observed) after greenness exposure: share of total aPM response. More on the design: Maximum response: unit not given here. It is filed as in vivo, human. How it is done: as §1, §2, §3
Data set [3] in a line: Kinetic modeling of urinary aPM with a pseudo one-compartment nonlinear mixed-effects model after α-pinene inhalation. It is filed as in vivo, human. As to conditions: for F (%), fraction of metabolite generated from absorbed α-pinene: human urine after 10 min α-pinene inhalation, F normalized to the sum of 22 detected metabolites; for Elimination t1/2 / Ka, first-order generation constant / Ke, first-order elimination rate constant / half-life / k el: human urine after α-pinene inhalation, pseudo one-compartment model; for half-life / k el: inhaled or intranasal; for half-life: read-out: Elimination t1/2 (converted); for k el: read-out: Ke, first-order elimination rate constant (converted). An excerpt:
In this equation, i represents the participant index, j the urine sample index, C the creatinine-normalized peak response, and t the sample collection time ( h).Ka denotes the first-order generation constant ( h^−1 ), and Ke denotes the first-order elimination rate constant h^−1 . F indicates the fraction of specific aPM relative to absorbed α-pinene. The variables D and V refer to the absorbed α-pinene amount and the distribution volume, respectively. Because input data were derived from relative quantification, absolute values of D , V , and F were not available. For simplicity, D and V were fixed at 100 and 1, respectively, and F was normalized relative to the sum of all detected aPM. The error term ε accounts for residual variation.

Data set [4] in a line: aPM in mouse urine after i.p. injection of (+)-α-pinene or (−)-α-pinene. Format: in vivo, mice (C57BL/6). To be noted: for R/(R+S): mouse urine, enantiomer specificity. How it is done:
Mouse urine was collected after exposures to either (+) or (−) α-pinene to distinguish between metabolites of different enantiomers of α-pinene. Adult male mice (C57BL/6) were intraperitoneally administered with 50 mg/kg body weight of (+)-α-pinene or (−)-α-pinene dissolved in 100 μl sterile saline with 1 % Tween 80.

The conditions of data set [5]: cited from earlier work.
The mark [6] stands for this setting: mouse urine collected overnight, 50 mg/kg i.p. (+)-α-pinene, 50 mg/kg.
Setting [7] is: mouse urine collected overnight, 50 mg/kg i.p. (−)-α-pinene, 50 mg/kg.
Where [8] appears, read: male, C57BL/6, mouse, in vivo, ip, 50 mg/kg.

Like-named read-outs stand apart in the source and are kept apart here.

In general, Tmax refers to the time at which the peak concentration occurs.

`CC1(C)C2CC1C(OC1OC(C(=O)O)C(O)C(O)C1O)C=C2C(=O)O` (single isomer, unassigned) [aPM5f, Myrtenic acid-4-O-GlcA]: in data set [1], the “Frequency of occurrence (percentage of samples with analyte detected)” value is 87.5%, the “Maximum response (highest peak response across all urine samples)” value worked out at 5543, the “Observed Tmax” value was 60 min and the “Proportion (observed) after α-pinene inhalation” value turned out to be 0.5%. Also, in data set [2], the Frequency of occurrence came out at 0.0%. Besides, in data set [3], the “F (%), fraction of metabolite generated from absorbed α-pinene” value (“F (%), fraction of metabolite generated” for short) is listed as 0.29 ± 0.12%; the “Elimination t1/2” value came out at 57 ± 22.2 min; the “Ka, first-order generation constant” value was found to be 1.53 ± 0.71 h⁻¹; the “Ke, first-order elimination rate constant” value was found to be 0.73 ± 0.29 h⁻¹. In data set [4] (setting [6]), the “(1R)-(+)-α-Pinene (Average), proportion of aPM in mouse urine” value (from here on “(1R)-(+)-α-Pinene (Average), proportion”) is 0.0%. For the same molecule, the “(1S)-(−)-α-Pinene (Average), proportion of aPM in mouse urine” value (“(1S)-(−)-α-Pinene (Average), proportion” for short) in data set [4] (setting [7]) amounted to 0.0%.

With `CC1(C)C2CC1C(OC1OC(C(=O)O)C(O)C(O)C1O)C=C2C(=O)O` (single isomer, unassigned) [aPM5g, Myrtenic acid-4-O-GlcA], in data set [1], the “Frequency of occurrence (percentage of samples with analyte detected)” value is listed as 100.0%, the “Maximum response (highest peak response across all urine samples)” value turned out to be 77327, the “Observed Tmax” value amounted to 60 min and the “Proportion (observed) after α-pinene inhalation” value is reported as 4.4%. For the same molecule, in data set [2], the Frequency of occurrence is reported as 25.0%, the Maximum response turned out to be 98 and the “Proportion (observed) after greenness exposure” value was determined as 0.4%. In data set [3], the “F (%), fraction of metabolite generated” value turned out to be 5.10 ± 2.25%; the “Elimination t1/2” value came out at 41.4 ± 17.4 min; the “Ka, first-order generation constant” value worked out at 1.62 ± 0.81 h⁻¹; the “Ke, first-order elimination rate constant” value was found to be 1.01 ± 0.43 h⁻¹. Also, the “(1R)-(+)-α-Pinene (Average), proportion” value in data set [4] (setting [6]) amounted to 0.0%. The “(1S)-(−)-α-Pinene (Average), proportion” value in data set [4] (setting [7]) came to 0.0%.

On to `CC1(C)C2CC1C(C(=O)O)=CC2=O` (stereo not drawn) [aPM1, Myrtenic acid-4-one], for which, in data set [1], the “Frequency of occurrence (percentage of samples with analyte detected)” value is given as 95.8%, the “Maximum response (highest peak response across all urine samples)” value amounted to 17385, the Tmax is 60 min and the “Proportion (observed) after α-pinene inhalation” value came out at 1.8%. For the same molecule, in data set [2], the Frequency of occurrence turned out to be 31.3%, the Maximum response stood at 3544 and the “Proportion (observed) after greenness exposure” value turned out to be 1.3%. For the same molecule, in data set [3], the “F (%), fraction of metabolite generated” value was found to be 1.15 ± 0.39%; the “Ka, first-order generation constant” value was found to be 1.25 ± 0.43 h⁻¹; the half-life is 72 ± 22.8 min; the k el is 0.000161 s⁻¹. In data set [4] (setting [8]), the “(1R)-(+)-α-Pinene (Average), proportion” value was 0.1% and the “(1S)-(−)-α-Pinene (Average), proportion” value worked out at 0.8%.

Regarding `CC1=CC(OC2OC(C(=O)O)C(O)C(O)C2O)C2CC1C2(C)C` (stereo not drawn) [aPM2b, verbenol glucuronide], in data set [1], the “Frequency of occurrence (percentage of samples with analyte detected)” value amounted to 100.0% and the Tmax came out at 30 min. In data set [2], the Frequency of occurrence is on record as 6.3%, the Maximum response stood at 171 and the “Proportion (observed) after greenness exposure” value is 0.3%. In data set [3], the “F (%), fraction of metabolite generated” value is listed as 17.23 ± 3.91%; the “Ka, first-order generation constant” value was determined as 3.46 ± 0.98 h⁻¹; the half-life was 35.4 ± 4.8 min; the k el was 0.000325 s⁻¹. Moreover, in data set [4] (setting [8]), the “(1R)-(+)-α-Pinene (Average), proportion” value was 50.5% and the “(1S)-(−)-α-Pinene (Average), proportion” value is listed as 34.4%. Further, the “Detection in mouse urine” value in data set [4] (mouse, in vivo) is “present in murine samples”.

Take `CC1(C)C2CC=C(COC3OC(C(=O)O)C(O)C(O)C3O)C1C2` (stereo not drawn) [aPM2c, myrtenol glucuronide]: in data set [1], the “Frequency of occurrence (percentage of samples with analyte detected)” value is reported as 95.8%, the “Maximum response (highest peak response across all urine samples)” value came out at 154854, the Tmax amounted to 30 min and the “Proportion (observed) after α-pinene inhalation” value amounted to 4.9%. Further, in data set [2], the Frequency of occurrence turned out to be 31.3%, the Maximum response stood at 1435 and the “Proportion (observed) after greenness exposure” value is listed as 0.5%. In data set [3], the “F (%), fraction of metabolite generated” value was 6.99 ± 2.12%; the “Ka, first-order generation constant” value was 3.02 ± 0.88 h⁻¹; the half-life is 30 ± 5.4 min; the k el was 0.000386 s⁻¹. In data set [4] (setting [8]), the “(1R)-(+)-α-Pinene (Average), proportion” value is recorded as 21.8% and the “(1S)-(−)-α-Pinene (Average), proportion” value is 30.3%.

On to `C=C(C)[C@H]1CC=C(C)CC1` [limonene], for which the “Blood half-life (t1/2α)” value in data set [5] (limonene in blood, ref Falk-Filipsson et al., 1993) is listed as ~ 3 min.

Regarding `CC1=CCC2CC1C2(C)C` (stereo not drawn) [α-pinene, α-Pinene], in data set [5] (α-pinene in blood, ref Falk et al., 1990), the “Blood half-life (t1/2α)” value is given as ~ 5 min.

For the molecule Myrtenic acid-4-O-7-O-GlcA [aPM8], in data set [1], the “Frequency of occurrence (percentage of samples with analyte detected)” value was 83.3%, the “Maximum response (highest peak response across all urine samples)” value is listed as 13644, the “Observed Tmax” value came to 60 min and the “Proportion (observed) after α-pinene inhalation” value was found to be 0.8%. The same molecule displayed a Frequency of occurrence in data set [2] of 0.0%. For the same molecule, in data set [3], the “F (%), fraction of metabolite generated” value is 0.65 ± 0.31%; the “Elimination t1/2” value turned out to be 58.2 ± 25.2 min; the “Ka, first-order generation constant” value turned out to be 0.73 ± 0.33 h⁻¹; the “Ke, first-order elimination rate constant” value worked out at 0.71 ± 0.31 h⁻¹. In addition, in data set [4] (mouse urine collected overnight, 50 mg/kg i.p. (+)-α-pinene), the “(1R)-(+)-α-Pinene (Average), proportion” value was determined as 0.0%. Further, in data set [4] (mouse urine collected overnight, 50 mg/kg i.p. (−)-α-pinene), the “(1S)-(−)-α-Pinene (Average), proportion” value worked out at 0.0%.

For Pinanetriol-GlcA [aPM7a], in data set [1], the “Frequency of occurrence (percentage of samples with analyte detected)” value was found to be 89.6%, the “Maximum response (highest peak response across all urine samples)” value worked out at 20611, the “Observed Tmax” value is 60 min and the “Proportion (observed) after α-pinene inhalation” value turned out to be 1.3%. This molecule yielded a Frequency of occurrence in data set [2] of 0.0%. Moreover, in data set [3], the “F (%), fraction of metabolite generated” value is reported as 1.56 ± 0.66%; the “Elimination t1/2” value was 44.4 ± 13.2 min; the “Ka, first-order generation constant” value came to 1.46 ± 0.48 h⁻¹; the “Ke, first-order elimination rate constant” value was found to be 0.93 ± 0.27 h⁻¹. Besides, the “(1R)-(+)-α-Pinene (Average), proportion” value in data set [4] (setting [6]) worked out at 21.2%. Moreover, in data set [4] (setting [7]), the “(1S)-(−)-α-Pinene (Average), proportion” value was determined as 3.8%. For the same molecule, in data set [4], the “R/(R+S)” value stood at 84.7%.

Turning to Pinanetriol-GlcA [aPM7b], in data set [1], the “Frequency of occurrence (percentage of samples with analyte detected)” value is recorded as 83.3%, the “Maximum response (highest peak response across all urine samples)” value is on record as 8663, the “Observed Tmax” value stood at 30 min and the “Proportion (observed) after α-pinene inhalation” value turned out to be 0.2%. In data set [2], this molecule gave a Frequency of occurrence of 0.0%. In addition, in data set [3], the “F (%), fraction of metabolite generated” value worked out at 0.28 ± 0.09%; the “Elimination t1/2” value is 36.6 ± 7.2 min; the “Ka, first-order generation constant” value came to 2.69 ± 0.73 h⁻¹; the “Ke, first-order elimination rate constant” value came out at 1.15 ± 0.22 h⁻¹. Besides, the “(1R)-(+)-α-Pinene (Average), proportion” value in data set [4] (setting [6]) amounted to 3.7%. In addition, the “(1S)-(−)-α-Pinene (Average), proportion” value in data set [4] (setting [7]) is 0.0%. Besides, the “R/(R+S)” value in data set [4] stood at 100%.
